In the supplement of paper PMC11208160:

Assay: recombinant barcode read abundance after kanamycin selection (control-corrected) (log10(CPM+1)); higher = more efficient recombination; sequences stand for … in AGTGCAGAGAAAATCGGCCAGTTTTCTCTGCCTGCAGTCCGCATGCCGT…AGATTTATGCAGCGGACTGCCTTTCTCCCAAAGTGATAAACCGGACAGTATCATGGACCGGTTTTCCCGGTAATCCGTATTTGCAAGGTTGGTTTCACT; site = the 11-nt target
Procedure, shortened: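 A promoter, a target, a barcode and the first 104 bridge RNA bases under J23119 made up each oligo. Oligos were Gibson-cloned into a vector bearing the other 73 bp and a T7-inducible recombinase, then co-electroporated into E. coli with a donor plasmid and plated in duplicate on chloramphenicol/ampicillin LB agar (control) or chloramphenicol/ampicillin/kanamycin with 0.1 mM IPTG. Recombination efficiency is the averaged, control-corrected counts per million of recombinant-junction barcodes. Reported values are log10(CPM+1).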
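Further: IS621 recombinase and bridge RNA in Escherichia coli cells.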

Row | Sequence | recombinant barcode read abundance (log10)
1 | GAGGGTTCTTGGGTTCTAACCTGTTGCAT (site GAGGGTGCTAG) | 0.528
2 | GAGGGTTCTTGGGTTCTAACCTGTTGCAT (site GAGGGTTCTAT) | 2.66
3 | GAGGTAGCTTGGGTTCTAACCTGTTGCCT (site GAGGTAGCTAG) | 1.18
4 | GAGGTAGCTTGGGTTCTAACCTGTTGCCT (site GATGTATCTAG) | 0.563
5 | GAGGTGCCTTGGGTTCTAACCTGTTGCAG (site ATAACCTCTAG) | 0.174
6 | GAGGTGCCTTGGGTTCTAACCTGTTGCAG (site GAGGTGCCTCT) | 1.44
7 | GAGTAGTCTTGGGTTCTAACCTGTTGCCT (site GAGAAGTCTAG) | 0.0847
8 | GAGTAGTCTTGGGTTCTAACCTGTTGCCT (site GAGCAGTCTAG) | 1.27
9 | GAGTAGTCTTGGGTTCTAACCTGTTGCCT (site GAGGAGTCTAG) | 0.00957
10 | GAGTAGTCTTGGGTTCTAACCTGTTGCCT (site GAGTAGTCTAG) | 2.39
11 | GAGTCTCCTTGGGTTCTAACCTGTTGCGG (site CTTCGGACTAA) | 0.187
12 | GAGTCTCCTTGGGTTCTAACCTGTTGCGG (site GAGTCTCCTCC) | 0.316
13 | GAGTGAGCTTGGGTTCTAACCTGTTGCAT (site GAGAGAGCTAT) | 0.645
14 | GAGTGAGCTTGGGTTCTAACCTGTTGCAT (site GAGCGAGCTAT) | 1.95
15 | GAGTGAGCTTGGGTTCTAACCTGTTGCAT (site GAGGGAGCTAT) | 0.986
16 | GAGTGAGCTTGGGTTCTAACCTGTTGCAT (site GAGTGAGCTAT) | 2.53
17 | GAGTGAGCTTGGGTTCTAACCTGTTGCGT (site GAGCGATCTAC) | 0.689
18 | GAGTGAGCTTGGGTTCTAACCTGTTGCGT (site GAGTGAGCTAC) | 3

Row | Sequence | recombinant barcode read abundance (log10)
19 | GAGTGCTCTTGGGTTCTAACCTGTTGCGT (site GAGCGCTCTAG) | 0.0262
20 | GAGTGCTCTTGGGTTCTAACCTGTTGCGT (site GAGTGCTCTAC) | 2.29
21 | GAGTGGCCTTGGGTTCTAACCTGTTGCCT (site GAGTGGCCTAA) | 0.316
22 | GAGTGGCCTTGGGTTCTAACCTGTTGCCT (site GAGTGGCCTAC) | 0.121
23 | GAGTGGCCTTGGGTTCTAACCTGTTGCCT (site GAGTGGCCTAG) | 0.346
24 | GAGTGGCCTTGGGTTCTAACCTGTTGCCT (site GAGTGGCCTAT) | 0.182
25 | GAGTGGCCTTGGGTTCTAACCTGTTGCGA (site GAGTGGCCTTC) | 2.02
26 | GAGTGGCCTTGGGTTCTAACCTGTTGCGA (site TCCGTATCTCT) | 0.0392
27 | GAGTGGCCTTGGGTTCTAACCTGTTGCGT (site GAGTGGCCTAA) | 0.314
28 | GAGTGGCCTTGGGTTCTAACCTGTTGCGT (site GAGTGGCCTAC) | 2.4
29 | GAGTGGCCTTGGGTTCTAACCTGTTGCGT (site GAGTGGCCTAG) | 0.227
30 | GAGTGGCCTTGGGTTCTAACCTGTTGCGT (site GAGTGGCCTAT) | 1.32
31 | GAGTTCCCTTGGGTTCTAACCTGTTGCCC (site ATTACTTCTAA) | 0.0963
32 | GAGTTCCCTTGGGTTCTAACCTGTTGCCC (site GAGTTCCCTGG) | 1.54
33 | GAGTTTCCTTGGGTTCTAACCTGTTGCGT (site GAGTTACCTAC) | 0.142
34 | GAGTTTCCTTGGGTTCTAACCTGTTGCGT (site GAGTTCCCTAC) | 0.278
35 | GAGTTTCCTTGGGTTCTAACCTGTTGCGT (site GAGTTGCCTAC) | 0.0725
36 | GAGTTTCCTTGGGTTCTAACCTGTTGCGT (site GAGTTTCCTAC) | 0.791
